Laboratory results reported in ChEMBL document CHEMBL5244202, “Structural evolution of toll-like receptor 7/8 agonists from imidazoquinolines to imidazoles” (RSC Med Chem, 2021).
Blank lines part the entries; values can stand above or below the molecule they belong to.

Assays:
Toll-like receptor 7 [1] = biological target: T1, Toll-like receptor 7 (Homo sapiens, UniProt Q9NYK1); experiment: Agonist activity at recombinant human TLR7 transfected in HEK293 cells assessed as induction of SEAP production incubated overnight by SEAP reporter gene based assay; assay type: cell-based
T1 sequence (Q9NYK1 whole entry): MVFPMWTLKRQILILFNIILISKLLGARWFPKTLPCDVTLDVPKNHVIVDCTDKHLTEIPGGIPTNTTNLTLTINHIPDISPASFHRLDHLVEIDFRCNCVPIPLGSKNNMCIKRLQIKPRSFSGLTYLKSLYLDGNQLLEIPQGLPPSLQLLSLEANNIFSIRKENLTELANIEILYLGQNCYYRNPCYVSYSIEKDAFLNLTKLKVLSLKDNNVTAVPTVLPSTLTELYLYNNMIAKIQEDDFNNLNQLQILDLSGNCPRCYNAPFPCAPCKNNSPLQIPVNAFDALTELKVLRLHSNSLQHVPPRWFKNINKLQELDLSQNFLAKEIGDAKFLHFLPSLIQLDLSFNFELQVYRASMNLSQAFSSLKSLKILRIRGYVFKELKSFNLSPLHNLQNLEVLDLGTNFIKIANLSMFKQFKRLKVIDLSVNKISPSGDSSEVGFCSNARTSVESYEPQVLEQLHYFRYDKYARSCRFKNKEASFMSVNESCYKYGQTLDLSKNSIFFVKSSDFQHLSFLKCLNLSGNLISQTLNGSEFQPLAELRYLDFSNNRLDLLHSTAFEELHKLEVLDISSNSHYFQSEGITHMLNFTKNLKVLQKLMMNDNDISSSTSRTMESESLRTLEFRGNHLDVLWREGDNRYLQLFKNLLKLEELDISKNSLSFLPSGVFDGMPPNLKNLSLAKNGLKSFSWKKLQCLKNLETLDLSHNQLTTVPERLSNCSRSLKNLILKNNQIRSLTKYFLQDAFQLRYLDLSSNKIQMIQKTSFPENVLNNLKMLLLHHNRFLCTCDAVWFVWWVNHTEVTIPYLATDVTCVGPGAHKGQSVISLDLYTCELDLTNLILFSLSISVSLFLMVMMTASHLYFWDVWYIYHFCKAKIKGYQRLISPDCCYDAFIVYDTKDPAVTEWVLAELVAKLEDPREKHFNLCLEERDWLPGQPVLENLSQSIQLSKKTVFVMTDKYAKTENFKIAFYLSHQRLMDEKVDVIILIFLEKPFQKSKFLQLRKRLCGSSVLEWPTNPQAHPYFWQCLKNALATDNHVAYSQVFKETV

Toll-like receptor 8 [2] = biological target: T2, Toll-like receptor 8 (Homo sapiens, UniProt Q9NR97); experiment: Agonist activity at human TLR8 transfected in HEK293 cells assessed as induction of SEAP production incubated overnight; assay type: cell-based
T2 sequence (Q9NR97 whole entry): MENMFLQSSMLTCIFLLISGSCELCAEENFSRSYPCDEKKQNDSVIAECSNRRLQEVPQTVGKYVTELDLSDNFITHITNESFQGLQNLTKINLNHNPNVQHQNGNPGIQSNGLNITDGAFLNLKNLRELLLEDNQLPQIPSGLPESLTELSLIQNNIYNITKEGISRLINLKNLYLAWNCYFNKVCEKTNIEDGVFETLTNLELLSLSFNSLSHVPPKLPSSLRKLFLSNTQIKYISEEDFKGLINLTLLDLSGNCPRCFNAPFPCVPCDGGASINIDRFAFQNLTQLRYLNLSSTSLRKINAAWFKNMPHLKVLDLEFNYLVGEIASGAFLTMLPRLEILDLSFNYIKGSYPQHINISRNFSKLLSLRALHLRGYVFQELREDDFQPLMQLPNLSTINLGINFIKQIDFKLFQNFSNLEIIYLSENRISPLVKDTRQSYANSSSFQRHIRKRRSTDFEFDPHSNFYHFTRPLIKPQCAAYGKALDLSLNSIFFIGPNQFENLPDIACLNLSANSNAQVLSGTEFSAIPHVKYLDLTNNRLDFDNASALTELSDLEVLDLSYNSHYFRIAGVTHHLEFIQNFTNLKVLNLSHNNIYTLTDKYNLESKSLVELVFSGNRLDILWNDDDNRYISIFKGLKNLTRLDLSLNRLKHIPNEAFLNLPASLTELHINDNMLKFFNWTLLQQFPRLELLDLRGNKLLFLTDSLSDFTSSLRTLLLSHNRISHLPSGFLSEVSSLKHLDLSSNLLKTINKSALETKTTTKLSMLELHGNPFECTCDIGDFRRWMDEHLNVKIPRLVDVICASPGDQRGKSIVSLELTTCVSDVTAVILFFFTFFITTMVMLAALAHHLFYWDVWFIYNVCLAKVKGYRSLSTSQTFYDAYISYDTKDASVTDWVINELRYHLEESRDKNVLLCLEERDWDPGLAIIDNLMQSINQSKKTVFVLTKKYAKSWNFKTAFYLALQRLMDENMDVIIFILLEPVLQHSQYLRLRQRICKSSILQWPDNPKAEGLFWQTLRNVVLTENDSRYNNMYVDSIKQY

Toll-like receptor 7 [3] = biological target: T1, Toll-like receptor 7; experiment: Agonist activity at human TLR7 in HEK-Blue hTLR7 cells assessed as activation of NFkappaB by SEAP reporter gene based spectrophotometry assay; assay type: cell-based; settings: hek-blue htlr7
Toll-like receptor 8 [4] = biological target: T2, Toll-like receptor 8; experiment: Agonist activity at human TLR8 in HEK-Blue hTLR8 cells assessed as activation of NFkappaB by SEAP reporter gene based spectrophotometry assay; assay type: cell-based; settings: hek-blue htlr8
Toll-like receptor 8 [5] = biological target: T2, Toll-like receptor 8; experiment: Agonist activity at TLR8 (unknown origin)
Toll-like receptor 7 [6] = biological target: T1, Toll-like receptor 7; experiment: Agonist activity at TLR7 (unknown origin)
Toll-like receptor 8 [7] = biological target: T2, Toll-like receptor 8; experiment: Agonist activity at human TLR8 (27 to 287 residues) in HEK-Blue hTLR8 cells assessed as induction of NFkappaB by SEAP reporter gene based spectrophotometry assay; assay type: cell-based
Toll-like receptor 7 [8] = biological target: T1, Toll-like receptor 7; experiment: Agonist activity at human TLR7 in HEK-Blue hTLR7 cells incubated for 24 hrs by quanti-blue reagent based analysis; assay type: cell-based
Toll-like receptor 8 [9] = biological target: T2, Toll-like receptor 8; experiment: Agonist activity at human TLR8 in HEK-Blue hTLR8 cells incubated for 24 hrs by quanti-blue reagent based analysis; assay type: cell-based
Toll-like receptor 7 [10] = biological target: T1, Toll-like receptor 7; experiment: Agonist activity at human TLR7 transfected in HEK293 cells assessed as induction of SEAP production incubated overnight by SEAP reporter gene based assay; assay type: cell-based
Toll-like receptor 8 [11] = biological target: T2, Toll-like receptor 8; experiment: Agonist activity at human TLR8 in HEK-Blue hTLR8 cells assessed as induction of SEAP production using nitrophenyl phosphate as substrate incubated for 20 hrs by microplate reader analysis; assay type: cell-based
Homo sapiens = species on record: Homo sapiens; experiment: Selectivity index, ratio of EC50 for agonist activity at TLR8 (unknown origin) to EC50 for agonist activity at TLR7 (unknown origin)

Compound: CCC[C@@H](CCO)Nc1nc(N)nc(C)c1Cc1ccc(CNC2CN(C)C2)cc1OC
- EC50 (Toll-like receptor 7 [1]): 19.1 nM
- EC50 (Toll-like receptor 8 [2]): > 10000 nM

Compound: CCCCNc1nc(N)nnc1OCc1ccccc1
- EC50 (Toll-like receptor 8 [5]): 1930 nM
- EC50 (Toll-like receptor 7 [6]): 2940 nM

Compound: CCCCOc1nc(N)c2[nH]c(C#N)c(Cc3cnc(CN4CCCC4)s3)c2n1
- EC50 (Toll-like receptor 7 [8]): 454 nM
- EC50 (Toll-like receptor 8 [9]): 293000 nM

Compound: CCOC(=O)COc1cccc(CN(CCCn2c(CCOC)nc3c(N)nc4ccccc4c32)C(=O)CN(CC)CC)c1
- EC50 (Toll-like receptor 7 [10]): 54.6 nM

Compound: COc1cc2ccccc2nc1N
- EC50 (Toll-like receptor 8 [7]): 100000 nM

Compound: CCCCNc1nc(N)nnc1OCc1cccnc1
- EC50 (Toll-like receptor 7 [6]): 1710 nM

Compound: CC[C@H](C)Cc1nc2c(N)nc3ccccc3c2s1
- EC50 (Toll-like receptor 7 [3]): 4740 nM
- EC50 (Toll-like receptor 8 [4]): 2510 nM

Compound: CCCCNc1nc(N)nnc1OCc1ccccc1OC
- EC50 (Toll-like receptor 8 [5]): 640 nM

Compound: CCCCNc1nc(N)nnc1OCc1ccccn1
- EC50 (Toll-like receptor 7 [6]): 170 nM

Compound: CCC[C@@H](CO)Nc1nc(N)nc(C)c1Cc1ccc(CN2CCNCC2)cc1OC
- EC50 (Toll-like receptor 7 [1]): 63.1 nM
- EC50 (Toll-like receptor 8 [2]): 5250 nM

Compound: CCc1nc2c(N)nc3ccccc3c2s1
- EC50 (Toll-like receptor 7 [3]): 5120 nM
- EC50 (Toll-like receptor 8 [4]): 810 nM

Compound: CCC[C@@H](CCO)Nc1nc(N)nc(C)c1Cc1ccc(CN(C)CCO)cc1OC
- EC50 (Toll-like receptor 7 [1]): < 5.01 nM
- EC50 (Toll-like receptor 8 [11]): 2510 nM

Compound: CCCCNc1nc(N)nnc1OCCCc1ccccc1
- EC50 (Toll-like receptor 7 [6]): 2940 nM

Compound: CCCC[C@H](CCO)Nc1nc(N)nnc1OC
- EC50 (Toll-like receptor 7 [6]): 7800 nM

Compound: Nc1nc2ccccc2c2sc(CCCC(F)(F)F)nc12
- EC50 (Toll-like receptor 7 [3]): 2250 nM
- EC50 (Toll-like receptor 8 [4]): 6290 nM

Compound: CCOC(=O)C1=Cc2ccc(-c3cccc(C#N)c3)cc2N=C(N)C1
- EC50 (Toll-like receptor 8 [5]): 15000 nM
- EC50 (Toll-like receptor 7 [6]): 30 nM
- Ratio EC50 (Homo sapiens): 500

Compound: CCOC(=O)COc1ccc(CN(CCCn2c(CCOC)nc3c(N)nc4ccccc4c32)C(=O)CN(C)C)cc1
- EC50 (Toll-like receptor 7 [10]): 172 nM

Compound: CC(C)Cc1nc2c(N)nc3ccccc3c2s1
- EC50 (Toll-like receptor 7 [3]): 6960 nM
- EC50 (Toll-like receptor 8 [4]): 1550 nM

More lines, now with the values ahead:

- EC50 (Toll-like receptor 7 [1]): 55 nM
- EC50 (Toll-like receptor 8 [2]): > 10000 nM
Compound: CCC[C@@H](CCO)Nc1nc(N)nc(C)c1Cc1ccc(CN(C)CC(N)=O)cc1OC

- EC50 (Toll-like receptor 7 [3]): 3530 nM
- EC50 (Toll-like receptor 8 [4]): 1200 nM
Compound: CCCc1nc2c(NC(=O)CN=[N+]=[N-])nc3ccccc3c2s1

- EC50 (Toll-like receptor 8 [7]): 100000 nM
Compound: CCOc1cc2ccccc2nc1N

- EC50 (Toll-like receptor 7 [3]): 4140 nM
- EC50 (Toll-like receptor 8 [4]): 1940 nM
Compound: CCCCCc1nc2c(N)nc3ccccc3c2s1

- EC50 (Toll-like receptor 7 [10]): 114 nM
Compound: COCCc1nc2c(N)nc3ccccc3c2n1CCCCN(CCCN1CCOCC1)Cc1cccc(OCC(=O)OC(C)(C)C)c1

- EC50 (Toll-like receptor 7 [1]): 3.02 nM
- EC50 (Toll-like receptor 8 [2]): 6460 nM
Compound: CCC[C@@H](CCO)Nc1nc(N)nc(C)c1Cc1ccc(CNC)cc1OC

- EC50 (Toll-like receptor 8 [5]): 560 nM
- EC50 (Toll-like receptor 7 [6]): 240 nM
Compound: CCC[C@H](CCO)Nc1nc(N)nnc1OCc1nccc(OC)c1OC

- EC50 (Toll-like receptor 7 [6]): 100 nM
Compound: CCCCOc1nc(N)c2[nH]cc(Cc3ccc(CN4CCCC4)cc3)c2n1

- EC50 (Toll-like receptor 8 [5]): 100 nM
- EC50 (Toll-like receptor 7 [6]): > 25000 nM
Compound: CCCCNc1nc(N)nnc1OCCCN(C)C
